Molecular target: Coagulation factor VII/tissue factor (Homo sapiens, UniProt P08709)
Assay: Inhibition of human soluble tissue factor/factor VIIa expressed in Origami B (DE3) using D-Ile-Pro-Arg-pNA as substrate after 30 mins by spectrophotometric analysis
Details: not given

Chain of Coagulation factor VII/tissue factor (P08709 61-212 limits assumed): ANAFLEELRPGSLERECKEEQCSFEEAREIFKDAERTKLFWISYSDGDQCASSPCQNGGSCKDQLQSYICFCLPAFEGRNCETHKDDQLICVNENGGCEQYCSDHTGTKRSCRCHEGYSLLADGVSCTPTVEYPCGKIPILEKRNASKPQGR
Chain of Coagulation factor VII/tissue factor (P08709 213-466 limits assumed): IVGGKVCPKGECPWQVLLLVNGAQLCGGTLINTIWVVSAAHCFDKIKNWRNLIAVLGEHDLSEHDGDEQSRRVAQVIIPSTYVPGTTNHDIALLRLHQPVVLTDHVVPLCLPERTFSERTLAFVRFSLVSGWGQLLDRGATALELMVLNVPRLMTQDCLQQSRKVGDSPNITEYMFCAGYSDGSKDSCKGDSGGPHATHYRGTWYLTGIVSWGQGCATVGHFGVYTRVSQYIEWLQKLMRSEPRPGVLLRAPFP
Chain of Coagulation factor VII/tissue factor (P13726 33-295 partner limits assumed): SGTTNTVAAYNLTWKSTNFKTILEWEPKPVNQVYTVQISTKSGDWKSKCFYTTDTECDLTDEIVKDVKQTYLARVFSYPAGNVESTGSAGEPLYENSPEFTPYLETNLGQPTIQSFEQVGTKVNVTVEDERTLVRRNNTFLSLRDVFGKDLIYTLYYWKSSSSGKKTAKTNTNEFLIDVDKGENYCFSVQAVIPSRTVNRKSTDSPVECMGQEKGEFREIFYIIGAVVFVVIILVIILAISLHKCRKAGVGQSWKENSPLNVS

| Structure (SMILES) | Ki [mM] |
| --- | --- |
| Clc1ccc2[nH]nnc2c1 | 8.7 |
| CC(O)c1cccc2ccccc12 (centres undefined) | 16 |
| COc1cc(Br)ccc1O | 13 |
| COC(=O)c1cccc2[nH]ccc12 | 13 |
| COc1cc(Cl)ccc1O | 16 |
| O=C(O)c1c[nH]c2ccc(Cl)cc12 | 5.7 |
| COC(=O)Nc1ccc(S(=O)(=O)C(C)C)c([C@H]2CCCN2C(=O)[C@H](Nc2ccc3c(c2)C(=O)NCC3)c2cc(OC)c(OC)cc2F)c1 | 0.00013 |
| Clc1ccc2[nH]ccc2c1 | 4.3 |
| O=C(O)c1cc2cc(Cl)ccc2[nH]1 [5-CHLOROINDOLE-2-CARBOXYLIC ACID] | 3.5 |
| N=C(N)c1ccccc1 [BENZAMIDINE] | 0.24 |
| OCc1ccc(Cl)cc1Cl [DICHLOROBENZYL ALCOHOL] | 13 |
| NC(=O)c1cccnc1 [NIACINAMIDE] | 8 |

System: not listed separately
Assay: Permeability of the compound after 4 hrs by PAMPA
Format: ADME
Details: read-out: permeability

| Structure (SMILES) | Papp at 4 h [×10⁻⁶ cm/s] |
| --- | --- |
| COC(=O)Nc1ccc(S(=O)(=O)C(C)C)c([C@H]2CCCN2C(=O)[C@H](Nc2ccc3c(c2)C(=O)NCC3)c2cc(OC)c(OC)cc2F)c1 | 1.8 |

System: Plasma
Assay: Anticoagulant activity in factor VII-deficient human plasma assessed as concentration required to prolong clotting time by two-fold
Format: functional
Details: not given

| Structure (SMILES) | 2PT [µM] |
| --- | --- |
| COC(=O)Nc1ccc(S(=O)(=O)C(C)C)c([C@H]2CCCN2C(=O)[C@H](Nc2ccc3c(c2)C(=O)NCC3)c2cc(OC)c(OC)cc2F)c1 | 160 |

Source: ChEMBL document CHEMBL3414465, “Discovery of novel P1 groups for coagulation factor VIIa inhibition using fragment-based screening” (J Med Chem, 2015)
